From publication PMC4710522, “A Novel Triazolopyridine-Based Spleen Tyrosine Kinase Inhibitor That Arrests Joint Inflammation” (PLoS ONE, 2016)
Several values for one entry are separate records, joined by “and”; a condition that tells them apart may be missing. Equal values may be shown once. Read-outs that look alike come from different tables or passages of the source.

Legend:
Test in all cases: SelectScreen kinase assay
Type in all cases: biochemical
ALK4_h = target: T1, ALK4_h (Homo sapiens, UniProt P36896); conditions: KM ATP, read-out: % control
T1 construct: purchased Life Technologies (Invitrogen) SelectScreen, Z'-LYTE / Adapta
T1 sequence (P36896 24-505): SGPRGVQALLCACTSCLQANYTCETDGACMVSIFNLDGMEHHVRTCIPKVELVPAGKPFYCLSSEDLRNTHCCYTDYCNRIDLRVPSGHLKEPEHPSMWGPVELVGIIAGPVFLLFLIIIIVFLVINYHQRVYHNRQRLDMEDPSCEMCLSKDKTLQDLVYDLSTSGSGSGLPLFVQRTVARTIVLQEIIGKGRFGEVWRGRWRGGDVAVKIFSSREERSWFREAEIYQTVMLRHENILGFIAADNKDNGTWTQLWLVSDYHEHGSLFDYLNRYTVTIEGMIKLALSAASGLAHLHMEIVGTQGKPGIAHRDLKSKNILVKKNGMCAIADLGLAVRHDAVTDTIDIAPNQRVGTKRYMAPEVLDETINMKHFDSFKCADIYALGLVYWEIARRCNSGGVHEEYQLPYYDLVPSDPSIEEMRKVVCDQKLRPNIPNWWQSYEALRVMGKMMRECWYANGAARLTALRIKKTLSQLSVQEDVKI
Summary of the method: (§1)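 ATP level varied by condition (KM for the specific enzyme, 10 µM or 100 µM), while compound stayed at 3 µM; % control calculated against uninhibited DMSO wells.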

Abl_E255K_h = target: T2, Abl_E255K_h (Homo sapiens, UniProt P00519, E255K); conditions: KM ATP, read-out: % control
T2 construct: purchased Life Technologies (Invitrogen) SelectScreen, Z'-LYTE / Adapta
Summary of the method: as §1

Aurora-C_h = target: T3, Aurora-C_h (Homo sapiens, UniProt Q9UQB9); conditions: KM ATP, read-out: % control
T3 construct: purchased Life Technologies (Invitrogen) SelectScreen, Z'-LYTE / Adapta
Summary of the method: as §1

BRAF = target: T4, BRAF (Homo sapiens, UniProt P15056); conditions: 100 µM ATP, read-out: % control
T4 construct: purchased Life Technologies (Invitrogen) SelectScreen, Z'-LYTE / Adapta
Summary of the method: as §1

BrSK1_h = target: T5, BrSK1_h (Homo sapiens, UniProt Q8TDC3); conditions: KM ATP, read-out: % control
T5 construct: purchased Life Technologies (Invitrogen) SelectScreen, Z'-LYTE / Adapta
Summary of the method: as §1

CDK2_cyclinA_h = target: T6, CDK2_cyclinA_h (Homo sapiens, UniProt P24941); conditions: KM ATP, read-out: % control
T6 construct: purchased Life Technologies (Invitrogen) SelectScreen, Z'-LYTE / Adapta
Summary of the method: as §1

CDK9_h = target: T7, CDK9_h (Homo sapiens, UniProt P50750); conditions: KM ATP, read-out: % control
T7 construct: purchased Life Technologies (Invitrogen) SelectScreen, Z'-LYTE / Adapta
Summary of the method: as §1

CLK1_h = target: T8, CLK1_h (Homo sapiens, UniProt P49759); conditions: KM ATP, read-out: % control
T8 construct: purchased Life Technologies (Invitrogen) SelectScreen, Z'-LYTE / Adapta
T8 sequence (P49759 whole entry): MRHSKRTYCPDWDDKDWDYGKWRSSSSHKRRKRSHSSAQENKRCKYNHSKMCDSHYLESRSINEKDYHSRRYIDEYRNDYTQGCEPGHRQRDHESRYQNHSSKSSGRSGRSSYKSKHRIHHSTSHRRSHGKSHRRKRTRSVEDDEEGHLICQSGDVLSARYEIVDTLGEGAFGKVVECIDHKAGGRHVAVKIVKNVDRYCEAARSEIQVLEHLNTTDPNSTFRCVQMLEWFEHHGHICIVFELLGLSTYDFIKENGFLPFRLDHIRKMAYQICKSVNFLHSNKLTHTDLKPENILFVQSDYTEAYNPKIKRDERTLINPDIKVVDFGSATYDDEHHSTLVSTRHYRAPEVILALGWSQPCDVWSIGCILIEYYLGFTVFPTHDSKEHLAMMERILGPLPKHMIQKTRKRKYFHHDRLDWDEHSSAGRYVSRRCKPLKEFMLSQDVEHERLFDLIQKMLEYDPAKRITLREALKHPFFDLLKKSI
Summary of the method: as §1

DYRK1B_h = target: T9, DYRK1B_h (Homo sapiens, UniProt Q9Y463); conditions: KM ATP, read-out: % control
T9 construct: purchased Life Technologies (Invitrogen) SelectScreen, Z'-LYTE / Adapta
Summary of the method: as §1

FGFR2_h = target: T10, FGFR2_h (Homo sapiens, UniProt P21802); conditions: KM ATP, read-out: % control
T10 construct: purchased Life Technologies (Invitrogen) SelectScreen, Z'-LYTE / Adapta
Summary of the method: as §1

GRK7_h = target: T11, GRK7_h (Homo sapiens, UniProt Q8WTQ7); conditions: KM ATP, read-out: % control
T11 construct: purchased Life Technologies (Invitrogen) SelectScreen, Z'-LYTE / Adapta
Summary of the method: as §1

Gck_h = target: T12, Gck_h (Homo sapiens, UniProt Q12851); conditions: KM ATP, read-out: % control
T12 construct: purchased Life Technologies (Invitrogen) SelectScreen, Z'-LYTE / Adapta
Summary of the method: as §1

IRAK1_h = target: T13, IRAK1_h (Homo sapiens, UniProt P51617); conditions: KM ATP, read-out: % control
T13 construct: purchased Life Technologies (Invitrogen) SelectScreen, Z'-LYTE / Adapta
Summary of the method: as §1

IR_h = target: T14, IR_h (Homo sapiens, UniProt P06213); conditions: KM ATP, read-out: % control
T14 construct: purchased Life Technologies (Invitrogen) SelectScreen, Z'-LYTE / Adapta
Summary of the method: as §1

JAK3_h = JAK3_h (Homo sapiens, UniProt P52333)
Sequence of JAK3_h (P52333 whole entry): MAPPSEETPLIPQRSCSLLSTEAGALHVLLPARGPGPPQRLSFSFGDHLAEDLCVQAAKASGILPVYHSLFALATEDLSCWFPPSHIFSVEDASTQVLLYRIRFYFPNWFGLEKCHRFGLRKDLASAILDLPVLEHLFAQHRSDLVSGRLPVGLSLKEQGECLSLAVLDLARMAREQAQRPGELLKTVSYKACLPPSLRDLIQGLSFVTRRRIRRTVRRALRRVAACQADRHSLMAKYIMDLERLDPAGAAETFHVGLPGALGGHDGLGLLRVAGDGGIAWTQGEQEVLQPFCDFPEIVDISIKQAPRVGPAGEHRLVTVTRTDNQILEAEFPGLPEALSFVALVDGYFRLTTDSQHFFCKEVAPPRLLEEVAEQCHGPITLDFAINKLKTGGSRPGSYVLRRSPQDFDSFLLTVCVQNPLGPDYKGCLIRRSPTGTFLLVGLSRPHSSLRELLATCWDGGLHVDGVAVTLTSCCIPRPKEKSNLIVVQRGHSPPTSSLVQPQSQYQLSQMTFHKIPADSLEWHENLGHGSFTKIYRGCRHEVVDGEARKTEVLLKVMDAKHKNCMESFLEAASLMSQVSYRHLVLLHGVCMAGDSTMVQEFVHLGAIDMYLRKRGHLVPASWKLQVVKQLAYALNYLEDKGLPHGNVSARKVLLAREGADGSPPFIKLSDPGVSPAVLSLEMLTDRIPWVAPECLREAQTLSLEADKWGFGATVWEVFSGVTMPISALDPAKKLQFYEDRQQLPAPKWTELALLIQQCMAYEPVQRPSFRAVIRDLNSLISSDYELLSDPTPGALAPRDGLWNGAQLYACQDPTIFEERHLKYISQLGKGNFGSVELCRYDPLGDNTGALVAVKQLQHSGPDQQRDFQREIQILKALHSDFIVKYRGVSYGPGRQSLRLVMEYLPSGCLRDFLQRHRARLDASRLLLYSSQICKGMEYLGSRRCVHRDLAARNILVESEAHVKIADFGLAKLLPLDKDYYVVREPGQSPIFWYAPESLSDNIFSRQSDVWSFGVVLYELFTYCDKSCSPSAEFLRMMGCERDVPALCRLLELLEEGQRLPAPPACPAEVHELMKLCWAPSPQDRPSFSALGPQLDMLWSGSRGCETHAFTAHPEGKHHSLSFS
Summary of the method: as §1

LRRK2_h = target: T15, LRRK2_h (Homo sapiens, UniProt Q5S007); conditions: KM ATP, read-out: % control
T15 construct: purchased Life Technologies (Invitrogen) SelectScreen, Z'-LYTE / Adapta
Summary of the method: as §1

Ltk_h = target: T16, Ltk_h (Homo sapiens, UniProt P29376); conditions: KM ATP, read-out: % control
T16 construct: purchased Life Technologies (Invitrogen) SelectScreen, Z'-LYTE / Adapta
Summary of the method: as §1

MARK3_h = target: T17, MARK3_h (Homo sapiens, UniProt P27448); conditions: KM ATP, read-out: % control
T17 construct: purchased Life Technologies (Invitrogen) SelectScreen, Z'-LYTE / Adapta
Summary of the method: as §1

MARK4_h = target: T18, MARK4_h (Homo sapiens, UniProt Q96L34); conditions: KM ATP, read-out: % control
T18 construct: purchased Life Technologies (Invitrogen) SelectScreen, Z'-LYTE / Adapta
Summary of the method: as §1

MELK_h = target: T19, MELK_h (Homo sapiens, UniProt Q14680); conditions: KM ATP, read-out: % control
T19 construct: purchased Life Technologies (Invitrogen) SelectScreen, Z'-LYTE / Adapta
T19 sequence (Q14680 whole entry): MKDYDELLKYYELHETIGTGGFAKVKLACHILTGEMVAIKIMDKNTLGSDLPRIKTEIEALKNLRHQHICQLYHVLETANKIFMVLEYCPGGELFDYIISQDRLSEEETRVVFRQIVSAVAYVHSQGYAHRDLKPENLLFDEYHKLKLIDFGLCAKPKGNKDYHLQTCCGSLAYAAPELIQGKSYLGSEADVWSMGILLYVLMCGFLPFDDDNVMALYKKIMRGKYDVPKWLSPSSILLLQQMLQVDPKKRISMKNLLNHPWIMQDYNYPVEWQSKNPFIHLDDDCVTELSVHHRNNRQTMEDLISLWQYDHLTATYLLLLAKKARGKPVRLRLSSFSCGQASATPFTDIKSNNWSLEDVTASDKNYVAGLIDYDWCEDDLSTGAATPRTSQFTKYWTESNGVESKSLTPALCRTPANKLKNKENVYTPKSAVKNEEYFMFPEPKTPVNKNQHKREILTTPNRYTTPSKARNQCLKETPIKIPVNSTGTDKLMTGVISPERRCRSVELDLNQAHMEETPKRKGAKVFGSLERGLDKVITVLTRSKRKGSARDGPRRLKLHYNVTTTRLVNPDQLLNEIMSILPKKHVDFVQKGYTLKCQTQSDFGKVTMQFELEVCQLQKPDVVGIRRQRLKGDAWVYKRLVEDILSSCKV
Summary of the method: as §1

MST4_h = target: T20, MST4_h (Homo sapiens, UniProt Q9P289); conditions: KM ATP, read-out: % control
T20 construct: purchased Life Technologies (Invitrogen) SelectScreen, Z'-LYTE / Adapta
Summary of the method: as §1

PAK4_h = target: T21, PAK4_h (Homo sapiens, UniProt O96013); conditions: KM ATP, read-out: % control
T21 construct: purchased Life Technologies (Invitrogen) SelectScreen, Z'-LYTE / Adapta
Summary of the method: as §1

PDGFR-beta_h = target: T22, PDGFR-beta_h (Homo sapiens, UniProt P09619); conditions: KM ATP, read-out: % control
T22 construct: purchased Life Technologies (Invitrogen) SelectScreen, Z'-LYTE / Adapta
Summary of the method: as §1

PDK1_h = target: T23, PDK1_h (Homo sapiens, UniProt O15530); conditions: read-out: % control
T23 construct: purchased Life Technologies (Invitrogen) SelectScreen, Z'-LYTE / Adapta
T23 sequence (O15530 whole entry): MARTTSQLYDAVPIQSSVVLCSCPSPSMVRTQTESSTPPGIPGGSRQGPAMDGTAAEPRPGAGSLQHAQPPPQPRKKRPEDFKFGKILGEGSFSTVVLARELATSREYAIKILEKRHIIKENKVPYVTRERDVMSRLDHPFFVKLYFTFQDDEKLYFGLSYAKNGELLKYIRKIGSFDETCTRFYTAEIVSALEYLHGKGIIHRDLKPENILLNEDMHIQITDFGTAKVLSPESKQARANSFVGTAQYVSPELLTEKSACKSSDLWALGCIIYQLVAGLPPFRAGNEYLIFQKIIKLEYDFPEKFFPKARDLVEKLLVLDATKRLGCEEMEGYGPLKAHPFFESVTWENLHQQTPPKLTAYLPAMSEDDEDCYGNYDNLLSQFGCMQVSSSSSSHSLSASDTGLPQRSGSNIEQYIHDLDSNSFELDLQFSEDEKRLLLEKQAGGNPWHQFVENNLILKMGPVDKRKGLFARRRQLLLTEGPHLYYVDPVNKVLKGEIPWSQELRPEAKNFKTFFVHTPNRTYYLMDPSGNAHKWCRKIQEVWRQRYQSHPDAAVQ
Summary of the method: as §1

PKB-alpha_h = target: T24, PKB-alpha_h (Homo sapiens, UniProt P31749); conditions: KM ATP, read-out: % control
T24 construct: purchased Life Technologies (Invitrogen) SelectScreen, Z'-LYTE / Adapta
Summary of the method: as §1

PRKG2_h = target: T25, PRKG2_h (Homo sapiens, UniProt Q13237); conditions: KM ATP, read-out: % control
T25 construct: purchased Life Technologies (Invitrogen) SelectScreen, Z'-LYTE / Adapta
Summary of the method: as §1

PhK-gamma2_h = target: T26, PhK-gamma2_h (Homo sapiens, UniProt P15735); conditions: KM ATP, read-out: % control
T26 construct: purchased Life Technologies (Invitrogen) SelectScreen, Z'-LYTE / Adapta
Summary of the method: as §1

Plk1_h = target: T27, Plk1_h (Homo sapiens, UniProt P53350); conditions: KM ATP, read-out: % control
T27 construct: purchased Life Technologies (Invitrogen) SelectScreen, Z'-LYTE / Adapta
Summary of the method: as §1

Ret_h = Ret_h (Homo sapiens, UniProt P07949)
Sequence of Ret_h (P07949 29-1114): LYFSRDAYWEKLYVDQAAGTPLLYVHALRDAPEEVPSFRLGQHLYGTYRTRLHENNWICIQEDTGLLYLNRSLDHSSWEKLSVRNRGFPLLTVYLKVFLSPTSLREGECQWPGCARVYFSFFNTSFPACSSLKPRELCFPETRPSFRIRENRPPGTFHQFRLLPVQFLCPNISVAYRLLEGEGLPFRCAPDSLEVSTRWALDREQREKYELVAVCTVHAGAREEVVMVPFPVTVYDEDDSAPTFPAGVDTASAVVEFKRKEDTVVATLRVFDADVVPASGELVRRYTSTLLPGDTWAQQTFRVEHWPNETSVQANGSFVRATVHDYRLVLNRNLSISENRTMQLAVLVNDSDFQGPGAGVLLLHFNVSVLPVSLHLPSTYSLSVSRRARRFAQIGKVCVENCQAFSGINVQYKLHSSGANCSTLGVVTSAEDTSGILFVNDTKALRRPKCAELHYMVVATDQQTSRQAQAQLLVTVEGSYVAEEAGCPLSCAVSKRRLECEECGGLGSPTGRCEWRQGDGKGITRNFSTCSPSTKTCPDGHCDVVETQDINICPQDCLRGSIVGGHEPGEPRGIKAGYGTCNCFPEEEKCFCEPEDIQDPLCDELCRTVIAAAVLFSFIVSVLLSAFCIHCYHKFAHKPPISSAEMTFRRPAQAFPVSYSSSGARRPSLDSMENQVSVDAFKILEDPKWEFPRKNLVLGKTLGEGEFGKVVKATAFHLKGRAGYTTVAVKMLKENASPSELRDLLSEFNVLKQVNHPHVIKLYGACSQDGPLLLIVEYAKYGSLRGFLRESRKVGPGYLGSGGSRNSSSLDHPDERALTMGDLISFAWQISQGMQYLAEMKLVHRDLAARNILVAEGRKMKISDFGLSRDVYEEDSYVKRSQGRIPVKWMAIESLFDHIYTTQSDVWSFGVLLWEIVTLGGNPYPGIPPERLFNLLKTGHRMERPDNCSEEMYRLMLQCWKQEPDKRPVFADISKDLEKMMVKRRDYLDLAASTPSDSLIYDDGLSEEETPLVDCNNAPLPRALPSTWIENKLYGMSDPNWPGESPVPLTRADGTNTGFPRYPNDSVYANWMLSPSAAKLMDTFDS
Summary of the method: as §1

Rsk2_h = target: T28, Rsk2_h (Homo sapiens, UniProt P51812); conditions: KM ATP, read-out: % control
T28 construct: purchased Life Technologies (Invitrogen) SelectScreen, Z'-LYTE / Adapta
Summary of the method: as §1

SRPK2_h = target: T29, SRPK2_h (Homo sapiens, UniProt P78362); conditions: KM ATP, read-out: % control
T29 construct: purchased Life Technologies (Invitrogen) SelectScreen, Z'-LYTE / Adapta
Summary of the method: as §1

TrkB_h = target: T30, TrkB_h (Homo sapiens, UniProt Q16620); conditions: KM ATP, read-out: % control
T30 construct: purchased Life Technologies (Invitrogen) SelectScreen, Z'-LYTE / Adapta
Summary of the method: as §1

ZAP-70_h = ZAP-70_h (Homo sapiens, UniProt P43403)
Sequence of ZAP-70_h (P43403 whole entry): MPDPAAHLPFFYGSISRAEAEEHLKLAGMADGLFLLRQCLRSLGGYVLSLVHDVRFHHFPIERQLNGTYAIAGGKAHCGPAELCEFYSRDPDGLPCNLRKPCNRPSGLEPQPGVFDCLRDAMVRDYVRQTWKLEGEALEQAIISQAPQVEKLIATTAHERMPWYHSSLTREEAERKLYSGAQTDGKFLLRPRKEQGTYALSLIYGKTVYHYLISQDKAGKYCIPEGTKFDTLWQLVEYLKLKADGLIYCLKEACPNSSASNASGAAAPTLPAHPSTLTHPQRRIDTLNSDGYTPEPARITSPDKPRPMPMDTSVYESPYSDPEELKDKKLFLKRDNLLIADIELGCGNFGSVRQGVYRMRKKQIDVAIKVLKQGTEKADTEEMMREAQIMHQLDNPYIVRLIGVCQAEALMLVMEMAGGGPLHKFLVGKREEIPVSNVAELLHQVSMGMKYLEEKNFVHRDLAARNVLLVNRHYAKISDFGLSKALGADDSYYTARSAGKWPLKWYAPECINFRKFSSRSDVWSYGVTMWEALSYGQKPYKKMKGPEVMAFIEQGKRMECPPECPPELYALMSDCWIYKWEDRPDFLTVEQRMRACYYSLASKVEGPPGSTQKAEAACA
Summary of the method: as §1

[1] = 3 µM, KM ATP, read-out: % control
[2] = 10-point dose-response, commercial vendor

c1cc(CC2CCOCC2)n2nc(Nc3ccc4c(NC5CCOCC5)n[nH]c4c3)nc2c1 [CC-509, [3-(2H-3,4,5,6-tetrahydropyran-4-ylamino)(1H-indazol-6-yl)][5-(2H-3,4,5,6-tetrahydropyran-4-ylmethyl)(2H-1,2,4-triazolo[1,5-a]pyridin-2-yl)]amine]
remaining activity at 3 µM (ALK4_h): 107%
remaining activity at 3 µM (Abl_E255K_h): 26%
remaining activity at 3 µM (Aurora-C_h): 18%
remaining activity at 3 µM (BRAF): 83%
remaining activity at 3 µM (BrSK1_h): 65%
remaining activity at 3 µM (CDK2_cyclinA_h): 64%
remaining activity at 3 µM (CDK9_h): 31%
remaining activity at 3 µM (CLK1_h): 82%
remaining activity at 3 µM (DYRK1B_h): 95%
remaining activity at 3 µM (FGFR2_h): 46%
remaining activity at 3 µM (GRK7_h): 94%
remaining activity at 3 µM (Gck_h): 57%
remaining activity at 3 µM (IRAK1_h): 20%
remaining activity at 3 µM (IR_h): 91%
remaining activity at 3 µM (JAK3_h; [1]): 5%
IC50 (JAK3_h; [2]): 20 nM and 18 nM
remaining activity at 3 µM (LRRK2_h): 3%
remaining activity at 3 µM (Ltk_h): 71%
remaining activity at 3 µM (MARK3_h): 42%
remaining activity at 3 µM (MARK4_h): 33%
remaining activity at 3 µM (MELK_h): 10%
remaining activity at 3 µM (MST4_h): 99%
remaining activity at 3 µM (PAK4_h): 87%
remaining activity at 3 µM (PDGFR-beta_h): 43%
remaining activity at 3 µM (PDK1_h; 100 µM ATP): 78%
remaining activity at 3 µM (PDK1_h; KM ATP): 47%
remaining activity at 3 µM (PKB-alpha_h): 100%
remaining activity at 3 µM (PRKG2_h): 93%
remaining activity at 3 µM (PhK-gamma2_h): 103%
remaining activity at 3 µM (Plk1_h): 88%
remaining activity at 3 µM (Ret_h; [1]): 13%
IC50 (Ret_h; [2]): 397 nM
remaining activity at 3 µM (Rsk2_h): 49%
remaining activity at 3 µM (SRPK2_h): 111%
remaining activity at 3 µM (TrkB_h): 34%
remaining activity at 3 µM (ZAP-70_h; [1]): 70%
IC50 (ZAP-70_h; [2]): > 3000 nM
